The compounds below were run on MCH receptors (assay: MCH receptor activity class (method not given)). Details: class by percent of control at 10^−7 M or IC50.
In the case of `Cc1cnc(N[C@H]2CC[C@@H](CNC(=O)c3cccnc3Oc3ccc(F)c(Cl)c3)C2)nc1N(C)C` [compound 3019], the class is reported as 2 (Class 2: The value of percent of control at 10^−7 M was from 40% to 60% or the value of IC′50 was from 50 nM to 200 nM.).
For `Cc1cnc(N[C@H]2CC[C@@H](CNC(=O)c3cccnc3Oc3ccc(Cl)c(F)c3)C2)nc1N(C)C` [compound 3020], the class was 3 (Class 3 The value of percent of control at 10^−7 M was more than 60% or the value of IC50 was more than 200 nM.).
With `Cc1cnc(N[C@H]2CC[C@@H](NC(=O)N(C)c3cccc(Cl)c3)CC2)nc1N(C)C` [compound 3021, N-(3-chlorophenyl)-N′-(cis-4-{[4-(dimethylamino)-5-methylpyrimidin-2-yl]amino}cyclohexyl)-N-methylurea] the class was 1 (Class 1: The value of percent of control at 10^−7 M was less than 40% or the value of IC50 was less than 50 nM.).
For `Cc1cnc(N[C@H]2CC[C@@H](NC(=O)N(C)c3ccc(Cl)c(Cl)c3)CC2)nc1N(C)C` [compound 3022, N-(3,4-dichlorophenyl)-N′-(cis-4-{[4-(dimethylamino)-5-methylpyrimidin-2-yl]amino}cyclohexyl)-N-methylurea], the class was 1 (Class 1: The value of percent of control at 10^−7 M was less than 40% or the value of IC50 was less than 50 nM.).
`Cc1cccc(N(C)C(=O)N[C@H]2CC[C@@H](Nc3ncc(C)c(N(C)C)n3)CC2)c1` [compound 3023, N′-(cis-4-{[4-(dimethylamino)-5-methylpyrimidin-2-yl]amino}cyclohexyl)-N-methyl-N-(3-methylphenyl)urea] was tested, and the class was 1 (Class 1: The value of percent of control at 10^−7 M was less than 40% or the value of IC50 was less than 50 nM.).
`Cc1ccc(N(C)C(=O)N[C@H]2CC[C@@H](Nc3ncc(C)c(N(C)C)n3)CC2)cc1` [compound 3024, N′-(cis-4-{[4-(dimethylamino)-5-methylpyrimidin-2-yl]amino}cyclohexyl)-N-methyl-N-(4-methylphenyl)urea] was tested, and the class was 1 (Class 1: The value of percent of control at 10^−7 M was less than 40% or the value of IC50 was less than 50 nM.).
With `Cc1cnc(N[C@H]2CC[C@@H](NC(=O)N(C)c3cccc(F)c3)CC2)nc1N(C)C` [compound 3025, N′-(cis-4-{[4-(dimethylamino)-5-methylpyrimidin-2-yl]amino}cyclohexyl)-N-(3-fluorophenyl)-N-methylurea] the class was 1 (Class 1: The value of percent of control at 10^−7 M was less than 40% or the value of IC50 was less than 50 nM.).
In the case of `Cc1cnc(N[C@H]2CC[C@@H](NC(=O)N(C)c3ccc(F)cc3)CC2)nc1N(C)C` [compound 3026, N′-(cis-4-{[4-(dimethylamino)-5-methylpyrimidin-2-yl]amino}cyclohexyl)-N-(4-fluorophenyl)-N-methylurea], the class is reported as 1 (Class 1: The value of percent of control at 10^−7 M was less than 40% or the value of IC50 was less than 50 nM.).
`Cc1cnc(N[C@H]2CC[C@@H](NC(=O)N(C)c3ccc(Cl)cc3)CC2)nc1N(C)C` [compound 3027, N-(4-chlorophenyl)-N′-(cis-4-{[4-(dimethylamino)-5-methylpyrimidin-2-yl]amino}cyclohexyl)-N-methylurea] was tested, and the class was 1 (Class 1: The value of percent of control at 10^−7 M was less than 40% or the value of IC50 was less than 50 nM.).
For `COc1cccc(N(C)C(=O)N[C@H]2CC[C@@H](Nc3ncc(C)c(N(C)C)n3)CC2)c1` [compound 3028, N′-(cis-4-{[4-(dimethylamino)-5-methylpyrimidin-2-yl]amino}cyclohexyl)-N-(3-methoxyphenyl)-N-methylurea], the class was 1 (Class 1: The value of percent of control at 10^−7 M was less than 40% or the value of IC50 was less than 50 nM.).
With `COc1ccc(N(C)C(=O)N[C@H]2CC[C@@H](Nc3ncc(C)c(N(C)C)n3)CC2)cc1` [compound 3029, N′-(cis-4-{[4-(dimethylamino)-5-methylpyrimidin-2-yl]amino}cyclohexyl)-N-(4-methoxyphenyl)-N-methylurea] the class was 1 (Class 1: The value of percent of control at 10^−7 M was less than 40% or the value of IC50 was less than 50 nM.).
